Paper PMC3315515, “Identification of Novel Mt-Guab2 Inhibitor Series Active against M. tuberculosis” (PLoS ONE, 2012)
pKi: −log10 of the molar value. In brackets after ≈: the same amount, converted by molar mass. Several values for one entry are separate records, joined by “and”; a condition that tells them apart may be missing. Equal entries are not always repeated. Entries after “also recorded” stand apart in the source; their conditions may differ. Where two headings read alike, the source gives them in different places.

Assays:
Mt-GuaB2 = Mt-GuaB2 (Mycobacterium tuberculosis, UniProt P9WKI7); experiment: Mt-GuaB2 spectrophotometric assay (NADH formation at 340 nm), inhibitor kinetics; format: biochemical
M. smegmatis mc^2 155 = experiment: microbe, parasite or virus in culture; format: cell-based; details: for M. smeg MIC90: Table 2, highest concentration tested 128 µg/ml
M. tuberculosis H37Rv = details: cited from earlier work
S. pyogenes IMPDH = details: ref [29], [34]; cited from earlier work
M. smegmatis pVV16 = experiment: MIC of M. smegmatis with empty pVV16 vector control; format: cell-based; details: Mycolicibacterium smegmatis, Figure 4, vector alone control
[1] = tested on: M. smegmatis overexpressing Mt-GuaB2; experiment: microbe, parasite or virus in culture; format: cell-based
M. smegmatis = experiment: bactericidal activity against M. smegmatis (colony counts after 24 hours exposure); format: cell-based; details: Mycolicibacterium smegmatis, at least 99% reduction of viable counts, read-out: minimum bactericidal concentration (MBC)
[2] = tested on: M. tuberculosis Erdman strain; details: for Log 10 Protection, spleen / Log 10 Protection, lung: versus untreated controls d24, INH 25, 7759844 300 mg/kg/day
[3] = acute maximum tolerated dose (MTD) test; details: single dose 100, 300, 500 mg/kg by gavage in 0.5% methyl cellulose, seven days observation, C57BL/6 mice
[4] = tested on: NC(=O)c1ccc[n+]([C@@H]2O[C@H](COP(=O)([O-])OP(=O)(O)OC[C@H]3O[C@@H](n4cnc5c(N)ncnc54)[C@H](O)[C@@H]3O)[C@@H](O)[C@H]2O)c1; experiment: purified protein, by the assay type; details: other: variable substrate, fixed saturating co-substrate, 200 µl assay; pH 8.5; 37.0 °C
[5] = Table 2, varied IMP, fixed saturating NAD+ 2.8 mM
[6] = Table 2, Life Chemicals set, values without footnote a, previous screens ref [35]–[37]
[7] = Table 2, values with footnote a, ref Reynolds et al., 2011

Mt-GuaB2, sequence (P9WKI7 whole entry, looked up): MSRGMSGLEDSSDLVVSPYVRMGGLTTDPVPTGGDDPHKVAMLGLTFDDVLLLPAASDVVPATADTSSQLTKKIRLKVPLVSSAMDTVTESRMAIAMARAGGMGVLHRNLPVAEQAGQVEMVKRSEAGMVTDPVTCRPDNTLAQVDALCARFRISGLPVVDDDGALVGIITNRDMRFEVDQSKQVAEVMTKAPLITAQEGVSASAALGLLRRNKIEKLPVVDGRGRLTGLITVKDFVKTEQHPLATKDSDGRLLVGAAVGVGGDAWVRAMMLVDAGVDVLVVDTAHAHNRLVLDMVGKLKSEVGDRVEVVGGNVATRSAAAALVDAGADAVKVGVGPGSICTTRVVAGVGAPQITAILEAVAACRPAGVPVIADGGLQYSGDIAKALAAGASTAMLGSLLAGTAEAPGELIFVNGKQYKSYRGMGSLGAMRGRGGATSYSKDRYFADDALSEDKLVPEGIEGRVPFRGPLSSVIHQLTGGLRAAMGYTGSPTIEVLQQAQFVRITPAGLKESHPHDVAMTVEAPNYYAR

Compound	IMP αK i (Mt-GuaB2; [5]) [µM]	M. smeg MIC90 (M. smegmatis mc^2 155; TSB agar, 37°C, 3 days) [µg/mL]	M. tb MIC90 (M. tuberculosis H37Rv; [6]) [µg/mL]	further results
O=C(CS(=O)(=O)c1ccccc1)Nc1nc(-c2ccc3c(c2)CCCC3)cs1 [F2536-1573]	79.0	>128	1.02	
O=C(Nc1nnc(-c2ccc(Cl)s2)o1)c1nc2ccccc2s1 [F1374-1083]	4.86	>128	4.81	
COc1ccccc1-c1nnc(NC(=O)c2sc3ccccc3c2Cl)o1 [F1374-0253]	11.2	>128	5.30	pattern of inhibition with respect to IMP (Mt-GuaB2): uncompetitive inhibition; pattern of inhibition with respect to NAD+ (Mt-GuaB2): noncompetitive inhibition; pattern of inhibition with respect to NAD (Mt-GuaB2; Table 2): NC ((NC) Noncompetitive); pKi (Mt-GuaB2; Table 2, varied NAD+, fixed saturating IMP […], read-out: NAD K i): 3.36
NC(=O)c1ccc[n+]([C@@H]2O[C@H](COP(=O)([O-])OP(=O)(O)OC[C@H]3O[C@@H](n4cnc5c(N)ncnc54)[C@H](O)[C@@H]3O)[C@@H](O)[C@H]2O)c1 [NAD^+, nicotinamide adenine dinucleotide]				Km (S. pyogenes IMPDH): ~1.18 mM
CCOc1cc(-c2nnc(NC(=O)c3cc4ccccc4cc3OC)o2)cc(OCC)c1OCC [F2517-0198]	19.1	>128	2.68	
O=C(Nc1nnc(-c2cccs2)o1)c1nc2ccccc2s1 [F1374-0978]	28.3	>128		M. tb MIC90 (M. tuberculosis H37Rv; [7]): 2.98 ^a µg/ml
COc1ccc(OC(C)C(=O)Nc2ccc(I)cc2)cc1 (centres unmarked) [compound 7759844]				IMP αK i (Mt-GuaB2; Table 1, varied IMP, fixed saturating NAD+ 2.8 mM): 0.603 µM; IMP αK i (Mt-GuaB2; Table 3, analogs of lead scaffold): 0.603 µM; K i values (Mt-GuaB2; with respect to both substrates IMP and NAD+): nanomolar range; MIC90 (M. smegmatis mc^2 155; Mycolicibacterium smegmatis, MC^2155, 72 h, Table 1, TSB agar, 37°C, 3 days, read-out: M. smeg MIC90): 8 µg/mL (≈ 20.1 µM); MIC99 (M. smegmatis mc^2 155; Mycolicibacterium smegmatis, MC^2155, Figure 4, M. smegmatis mc^2 155): 8 µg/mL (≈ 20.1 µM); MIC99 (M. smegmatis pVV16): 8 µg/mL; MIC99 ([1]; Mycolicibacterium smegmatis, Figure 4, Mt-GuaB2 overexpression construct in pVV16): 48 µg/mL (≈ 121 µM); increase in MIC of Mt-GuaB2 overexpressing strain ([1]; compared with pVV16 vector control and wild type M. smegmatis): 6 fold; MBC (M. smegmatis): 32 µg/mL (≈ 80.6 µM); Log 10 Protection, spleen ([2]; spleen): 0.84 log10 protection units; Activity ([2]; spleen, 300 mg/kg/day): slightly active; M. tb MIC90 (M. tuberculosis H37Rv; Table 1, Chembridge compounds, M. tuberculosis H37Rv, previous screens ref [35]–[37]): 0.63 µg/mL; M. tb MIC90 (M. tuberculosis H37Rv; Table 3, analogs of lead scaffold, previous screens ref [35]–[37]): 0.633 µg/mL; tolerability, acute single dose [3]: no dose related adverse effects; also recorded: well tolerated with no acute adverse effects; also recorded: not toxic
Cc1ccc(C)c(-c2nnc(NC(=O)C3COc4ccccc4O3)o2)c1 (centres unmarked) [F2518-0401]	501.9	16	1.18	
Cc1ccc(-c2nnc(NC(=O)COc3ccccc3)o2)c(C)c1 [F2518-0274]	765.4	20	5.50	
Cc1ccc(-c2nnc(NC(=O)c3nc4ccccc4s3)o2)c(C)c1 [F2518-0183]	57.1	>128		M. tb MIC90 (M. tuberculosis H37Rv; [7]): 1.76 ^a µg/ml
Cc1ccc(C)c(-c2nnc(NC(=O)c3cccc4ccccc34)o2)c1 [F2518-0386]	22.6			M. tb MIC90 (M. tuberculosis H37Rv; [7]): 0.41 µg/ml and 0.41 ^a µg/ml
O=C(Nc1nnc(-c2ccccc2)o1)c1cc(-c2cccs2)nc2ccccc12 [F1374-0885]	19.0	2	0.72	
Mt-GuaB2 (Mycobacterium tuberculosis H37Rv)				Km [4]: 699.4 ± 63.70 µM
Cc1ccc(C)c(-c2nnc(NC(=O)COc3ccccc3)o2)c1 [F2518-0418]	328.7	32	2.24	
NNC(=O)c1ccncc1 [Isoniazid, isoniazid, reference compound]				Log 10 Protection, lung ([2]; 300 mg/kg/day): 2.7 log10 protection units; Log 10 Protection, lung ([2]; listed as INH, 300 mg/kg/day): 2.70 log10 protection units; Log 10 Protection, spleen ([2]; spleen, 300 mg/kg/day): 4.0 log10 protection units; Log 10 Protection, spleen ([2]; spleen, listed as INH, 300 mg/kg/day): 4.04 log10 protection units
O=C(Nc1nnc(-c2ccccc2Cl)o1)c1nc2ccccc2s1 [F1374-0033]	60.9	8	1.75	
COc1cc2ccccc2cc1C(=O)Nc1nnc(-c2ccc(F)cc2)o1 [F1374-0205]	35.3	>128	5.59	
O=C(Nc1nnc(-c2ccc(Br)cc2)o1)c1sc2ccccc2c1Cl [F2518-0484]	35.5	3	6.70	
COc1cc2ccccc2cc1C(=O)Nc1nnc(-c2cc(C)ccc2C)o1 [F2518-0413]	36.4	>128	1.23	
CC(C)c1ccc(OCC(=O)Nc2nccs2)cc1 [F1685-0077]	229.3	>128	6.88	
